From the supplement of paper PMC10307832

Tests used:
Assay in all cases: relative viability (nuclei count vs DMSO), 5 days (fraction); higher = more cells survive
CAL-12T = system: CAL-12T
Summary of the method: (§1)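 Values are medians from duplicate plates. Each reflects relative viability, defined as the nuclei count of treated wells over that of vehicle wells. Lung cancer cell lines in 1536-well plates were pin-tool dosed one day after seeding with one drug alone or with a fixed anchor-drug dose plus five library-drug doses (not always all listed) in √10 steps, then fixed, stained and imaged at 4× after 5 days.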

COR-L 105 = system: COR-L 105
Summary of the method: as §1

ChaGo-K-1 = system: ChaGo-K-1
Summary of the method: as §1

EMC-BAC-2 = system: EMC-BAC-2
Summary of the method: as §1

EPLC-272H = system: EPLC-272H
Summary of the method: as §1

HCC-15 = system: HCC-15
Summary of the method: as §1

HCC-78 = system: HCC-78
Summary of the method: as §1

HOP-62 = system: HOP-62
Summary of the method: as §1

LXF-289 = system: LXF-289
Summary of the method: as §1

NCI-H1666 = system: NCI-H1666
Summary of the method: as §1

NCI-H1755 = system: NCI-H1755
Summary of the method: as §1

NCI-H1915 = system: NCI-H1915
Summary of the method: as §1

NCI-H1975 = system: NCI-H1975
Summary of the method: as §1

NCI-H1993 = system: NCI-H1993
Summary of the method: as §1

NCI-H2023 = system: NCI-H2023
Summary of the method: as §1

NCI-H2085 = system: NCI-H2085
Summary of the method: as §1

NCI-H2126 = system: NCI-H2126
Summary of the method: as §1

NCI-H3122 = system: NCI-H3122
Summary of the method: as §1

NCI-H322M = system: NCI-H322M
Summary of the method: as §1

NCI-H358 = system: NCI-H358
Summary of the method: as §1

NCI-H441 = system: NCI-H441
Summary of the method: as §1

NCI-H522 = system: NCI-H522
Summary of the method: as §1

UMC-11 = system: UMC-11
Summary of the method: as §1

C[C@@H]1CN(CC(=O)Nc2ccc3c(c2)Cc2cccc(-c4cc(=O)cc(N5CCOCC5)o4)c2S3)C[C@H](C)O1 + CC(=O)Nc1cccc(-n2c(=O)n(C3CC3)c(=O)c3c(Nc4ccc(I)cc4F)n(C)c(=O)c(C)c32)c1 [Trametinib] (partner 0.02 µM)
relative viability (CAL-12T; first compound 0.04 µM): 0.309 | relative viability (CAL-12T; first compound 0.1265 µM): 0.306 | relative viability (CAL-12T; first compound 0.4 µM): 0.304 | relative viability (CAL-12T; first compound 4 µM): 0.205 | relative viability (COR-L 105; first compound 0.04 µM): 0.458 | relative viability (COR-L 105; first compound 0.1265 µM): 0.412 | relative viability (COR-L 105; first compound 0.4 µM): 0.416 | relative viability (COR-L 105; first compound 4 µM): 0.428 | relative viability (ChaGo-K-1; first compound 0.04 µM): 0.868 | relative viability (ChaGo-K-1; first compound 0.1265 µM): 0.859 | relative viability (ChaGo-K-1; first compound 0.4 µM): 0.879 | relative viability (ChaGo-K-1; first compound 4 µM): 0.871 | relative viability (EMC-BAC-2; first compound 0.04 µM): 0.891 | relative viability (EMC-BAC-2; first compound 0.1265 µM): 0.892 | relative viability (EMC-BAC-2; first compound 0.4 µM): 0.782 | relative viability (EMC-BAC-2; first compound 4 µM): 0.688 | relative viability (EPLC-272H; first compound 0.04 µM): 0.281 | relative viability (EPLC-272H; first compound 0.1265 µM): 0.289 | relative viability (EPLC-272H; first compound 0.4 µM): 0.281 | relative viability (EPLC-272H; first compound 4 µM): 0.263 | relative viability (HCC-15; first compound 0.04 µM): 0.374 | relative viability (HCC-15; first compound 0.1265 µM): 0.331 | relative viability (HCC-15; first compound 0.4 µM): 0.308 | relative viability (HCC-15; first compound 4 µM): 0.348 | relative viability (HCC-78; first compound 0.04 µM): 0.713 | relative viability (HCC-78; first compound 0.1265 µM): 0.751 | relative viability (HCC-78; first compound 0.4 µM): 0.859 | relative viability (HCC-78; first compound 4 µM): 0.711 | relative viability (HOP-62; first compound 0.04 µM): 0.4 | relative viability (HOP-62; first compound 0.1265 µM): 0.374 | relative viability (HOP-62; first compound 0.4 µM): 0.297 | relative viability (HOP-62; first compound 4 µM): 0.313 | relative viability (LXF-289; first compound 0.04 µM): 0.653 | relative viability (LXF-289; first compound 0.1265 µM): 0.682 | relative viability (LXF-289; first compound 0.4 µM): 0.658 | relative viability (LXF-289; first compound 4 µM): 0.676 | relative viability (NCI-H1666; first compound 0.04 µM): 0.881 | relative viability (NCI-H1666; first compound 0.1265 µM): 0.924 | relative viability (NCI-H1666; first compound 0.4 µM): 0.91 | relative viability (NCI-H1666; first compound 4 µM): 0.738 | relative viability (NCI-H1755; first compound 0.04 µM): 0.779 | relative viability (NCI-H1755; first compound 0.1265 µM): 0.737 | relative viability (NCI-H1755; first compound 0.4 µM): 0.716 | relative viability (NCI-H1755; first compound 4 µM): 0.663 | relative viability (NCI-H1915; first compound 0.04 µM): 0.299 | relative viability (NCI-H1915; first compound 0.1265 µM): 0.291 | relative viability (NCI-H1915; first compound 0.4 µM): 0.284 | relative viability (NCI-H1915; first compound 4 µM): 0.294 | relative viability (NCI-H1975; first compound 0.04 µM): 0.382 | relative viability (NCI-H1975; first compound 0.1265 µM): 0.377 | relative viability (NCI-H1975; first compound 0.4 µM): 0.37 | relative viability (NCI-H1975; first compound 4 µM): 0.33 | relative viability (NCI-H1993; first compound 0.04 µM): 0.521 | relative viability (NCI-H1993; first compound 0.1265 µM): 0.565 | relative viability (NCI-H1993; first compound 0.4 µM): 0.521 | relative viability (NCI-H1993; first compound 4 µM): 0.478 | relative viability (NCI-H2023; first compound 0.04 µM): 0.674 | relative viability (NCI-H2023; first compound 0.1265 µM): 0.507 | relative viability (NCI-H2023; first compound 0.4 µM): 0.509 | relative viability (NCI-H2023; first compound 4 µM): 0.311 | relative viability (NCI-H2085; first compound 0.04 µM): 0.51 | relative viability (NCI-H2085; first compound 0.1265 µM): 0.532 | relative viability (NCI-H2085; first compound 0.4 µM): 0.483 | relative viability (NCI-H2085; first compound 4 µM): 0.465 | relative viability (NCI-H2126; first compound 0.04 µM): 0.558 | relative viability (NCI-H2126; first compound 0.1265 µM): 0.573 | relative viability (NCI-H2126; first compound 0.4 µM): 0.561 | relative viability (NCI-H2126; first compound 4 µM): 0.557 | relative viability (NCI-H3122; first compound 0.04 µM): 0.273 | relative viability (NCI-H3122; first compound 0.1265 µM): 0.263 | relative viability (NCI-H3122; first compound 0.4 µM): 0.212 | relative viability (NCI-H3122; first compound 4 µM): 0.189 | relative viability (NCI-H322M; first compound 0.04 µM): 0.402 | relative viability (NCI-H322M; first compound 0.1265 µM): 0.535 | relative viability (NCI-H322M; first compound 0.4 µM): 0.502 | relative viability (NCI-H322M; first compound 4 µM): 0.501 | relative viability (NCI-H358; first compound 0.04 µM): 0.131 | relative viability (NCI-H358; first compound 0.1265 µM): 0.121 | relative viability (NCI-H358; first compound 0.4 µM): 0.12 | relative viability (NCI-H358; first compound 4 µM): 0.112 | relative viability (NCI-H441; first compound 0.04 µM): 0.539 | relative viability (NCI-H441; first compound 0.1265 µM): 0.481 | relative viability (NCI-H441; first compound 0.4 µM): 0.305 | relative viability (NCI-H441; first compound 4 µM): 0.368 | relative viability (NCI-H522; first compound 0.04 µM): 0.737 | relative viability (NCI-H522; first compound 0.1265 µM): 0.749 | relative viability (NCI-H522; first compound 0.4 µM): 0.724 | relative viability (NCI-H522; first compound 4 µM): 0.816 | relative viability (UMC-11; first compound 0.04 µM): 0.732 | relative viability (UMC-11; first compound 0.1265 µM): 0.757 | relative viability (UMC-11; first compound 0.4 µM): 0.868 | relative viability (UMC-11; first compound 4 µM): 0.65
